Measured values published in PubChem BioAssay (NCI).
Values joined by “and” are separate entries in the source; they are usually repeats but may differ in a detail not shown here. Equal entries are not always repeated.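 Method: 48-hour compound exposure of cells in 96-well plates, five concentrations, linear interpolation of endpoints. GI50 is the concentration that inhibits growth by half. Definition used: TGI = concentration required for complete inhibition of growth.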

What was measured:
Test in all cases: NCI anticancer screen, dose series, 48 h
[1] = tested on: OVCAR-5 ovarian
[2] = tested on: MALME-3M melanoma
[3] = tested on: NCI-H460 lung
[4] = tested on: SK-MEL-5 melanoma
[5] = tested on: HL-60(TB) leukemia
[6] = tested on: NCI-H522 lung
[7] = tested on: SNB-19 CNS
[8] = tested on: A498 renal
[9] = tested on: NCI/ADR-RES ovarian
[10] = tested on: SR leukemia
[11] = tested on: HCC-2998 colon
[12] = tested on: M14 melanoma
[13] = tested on: UACC-257 melanoma
[14] = tested on: TK-10 renal
[15] = tested on: SN12C renal
[16] = tested on: 786-0 renal
[17] = tested on: SNB-75 CNS
[18] = tested on: COLO 205 colon
[19] = tested on: SW-620 colon
[20] = tested on: RXF 393 renal
[21] = tested on: A549 NSCLC
[22] = tested on: MDA-MB-231 breast
[23] = tested on: OVCAR-8 ovarian
[24] = tested on: HOP-92 NSCLC
[25] = tested on: CCRF-CEM leukemia
[26] = tested on: MDA-MB-435
[27] = tested on: T-47D breast
[28] = tested on: SF-539 CNS
[29] = tested on: BT-549 breast
[30] = tested on: OVCAR-4 ovarian
[31] = tested on: SK-MEL-2 melanoma
[32] = tested on: EKVX NSCLC
[33] = tested on: MCF7 breast
[34] = tested on: UACC-62 melanoma
[35] = tested on: LOX IMVI melanoma
[36] = tested on: DU-145 prostate
[37] = tested on: CAKI-1 renal
[38] = tested on: HS 578T breast
[39] = tested on: K-562 leukemia
[40] = tested on: UO-31 renal
[41] = tested on: SF-295 CNS
[42] = tested on: HCT-15 colon
[43] = tested on: HOP-62 NSCLC
[44] = tested on: KM12 colon
[45] = tested on: IGROV1 ovarian
[46] = tested on: SK-MEL-28 melanoma
[47] = tested on: SF-268 CNS
[48] = tested on: HT29 colon
[49] = tested on: PC-3 prostate
[50] = tested on: U251 CNS
[51] = tested on: ACHN renal
[52] = tested on: HCT-116 colon
[53] = tested on: OVCAR-3 ovarian
[54] = tested on: NCI-H226 lung
[55] = tested on: SK-OV-3 ovarian
[56] = tested on: MOLT-4 leukemia
[57] = tested on: RPMI-8226 leukemia
[58] = tested on: NCI-H23 lung

Nc1nc(Cl)nc2c1ncn2[C@@H]1O[C@H](COS(N)(=O)=O)[C@@H](O)[C@H]1O
GI50 [1]: 4.25 nM
TGI [1]: 40.1 nM and 38.5 nM
GI50 [2]: 18.8 nM and 20.9 nM
TGI [2]: 40.3 nM and 45.6 nM
GI50 [3]: 30.6 nM and 30.5 nM
TGI [3]: 104 nM and 108 nM
GI50 [4]: 16.8 nM and 17.9 nM
TGI [4]: 31.3 nM and 33 nM
TGI [5]: 22.4 nM
GI50 [6]: 5.03 nM and 21.2 nM
TGI [6]: 24.4 nM and 62.3 nM
GI50 [7]: 3.65 nM
TGI [7]: 32.3 nM and 46.5 nM
GI50 [8]: 9.43 nM and 14.8 nM
TGI [8]: 25.4 nM and 30.9 nM
GI50 [9]: 12.1 nM and 19.6 nM
TGI [9]: 54 nM and 145 nM
GI50 [10]: 3.07 nM
TGI [10]: 48.7 nM and 41.8 nM
GI50 [11]: 19.1 nM and 22.6 nM
TGI [11]: 38.2 nM and 49.8 nM
GI50 [12]: 18.6 nM and 19.2 nM
TGI [12]: 42.1 nM and 37.5 nM
GI50 [13]: 23.3 nM and 24.2 nM
TGI [13]: 69.4 nM and 68.5 nM
GI50 [14]: 21 nM and 21.1 nM
TGI [14]: 58.1 nM and 65.4 nM
GI50 [15]: 3.77 nM
TGI [15]: 41.7 nM and 86.8 nM
GI50 [16]: 21.4 nM and 26.6 nM
TGI [16]: 55.6 nM and 74.1 nM
GI50 [17]: 20.2 nM and 20.9 nM
TGI [17]: 55.8 nM and 55.4 nM
GI50 [18]: 20.2 nM and 23.9 nM
TGI [18]: 48.9 nM and 54.3 nM
GI50 [19]: 25.6 nM and 31.2 nM
GI50 [20]: 19 nM and 22.9 nM
TGI [20]: 47.5 nM and 49.6 nM
GI50 [21]: 25.9 nM and 26.3 nM
TGI [21]: 82.9 nM and 82.3 nM
GI50 [22]: 4.81 nM
TGI [22]: 29.4 nM and 26.2 nM
GI50 [23]: 17.8 nM and 17.1 nM
TGI [23]: 56.2 nM and 45.3 nM
GI50 [24]: 15.9 nM and 20.6 nM
TGI [24]: 45.4 nM and 56 nM
GI50 [25]: 15.9 nM and 27 nM
TGI [25]: 101 nM
GI50 [26]: 17.1 nM and 17.6 nM
TGI [26]: 32.7 nM and 34.1 nM
GI50 [27]: 15.6 nM and 20 nM
TGI [27]: 65.6 nM and 74.4 nM
GI50 [28]: 21.7 nM
TGI [28]: 56.3 nM and 53.3 nM
GI50 [29]: 9 nM and 24.3 nM
TGI [29]: 64.6 nM and 71.3 nM
GI50 [30]: 3.03 nM
TGI [30]: 9.29 nM and 32.4 nM
GI50 [31]: 18.5 nM and 19.5 nM
TGI [31]: 43.7 nM and 42.9 nM
GI50 [32]: 23.2 nM and 30.1 nM
TGI [32]: 68.8 nM and 167 nM
GI50 [33]: 24 nM and 29.3 nM
GI50 [34]: 19 nM and 21.7 nM
TGI [34]: 44 nM and 56.1 nM
GI50 [35]: 18.1 nM and 23.1 nM
TGI [35]: 35.6 nM and 55.2 nM
GI50 [36]: 4.13 nM
TGI [36]: 34.9 nM and 30.1 nM
GI50 [37]: 20.8 nM
TGI [37]: 50.6 nM
GI50 [38]: 26.3 nM and 25.6 nM
TGI [38]: 86.9 nM and 78.7 nM
GI50 [39]: 17 nM and 19.9 nM
TGI [39]: 118 nM
GI50 [40]: 19.3 nM
TGI [40]: 47.5 nM
GI50 [41]: 24.4 nM and 32.4 nM
TGI [41]: 75.1 nM and 143 nM
GI50 [42]: 27.2 nM and 31.3 nM
TGI [42]: 88.1 nM and 168 nM
GI50 [43]: 6.84 nM
TGI [43]: 33.3 nM
GI50 [44]: 23.2 nM and 32.1 nM
TGI [44]: 70.7 nM and 166 nM
GI50 [45]: 30.4 nM and 30.8 nM
TGI [45]: 91.5 nM and 96.4 nM
GI50 [46]: 20.1 nM and 20.8 nM
TGI [46]: 50 nM and 51.1 nM
GI50 [47]: 23.4 nM and 26.9 nM
TGI [47]: 76.8 nM and 88 nM
GI50 [48]: 25.4 nM and 30 nM
TGI [48]: 67.8 nM and 94.9 nM
GI50 [49]: 20.9 nM and 25.8 nM
TGI [49]: 73.7 nM and 80 nM
GI50 [50]: 22.2 nM and 23.1 nM
TGI [50]: 65.8 nM and 66.3 nM
GI50 [51]: 25.7 nM and 25.2 nM
TGI [51]: 77.8 nM and 65.7 nM
GI50 [52]: 18.3 nM and 25.1 nM
TGI [52]: 104 nM and 76.7 nM
GI50 [53]: 28.2 nM
TGI [53]: 86.4 nM and 71.4 nM
GI50 [54]: 17.4 nM and 16.7 nM
TGI [54]: 40.1 nM and 46.3 nM
GI50 [55]: 24.8 nM and 26 nM
TGI [55]: 73.9 nM and 66.6 nM
GI50 [56]: 10.9 nM
TGI [56]: 391 nM and 45.7 nM
GI50 [57]: 25.1 nM and 25.5 nM
TGI [57]: 97.5 nM and 72 nM
GI50 [58]: 21 nM and 28.8 nM
TGI [58]: 53.8 nM and 98.2 nM

COc1cc(NC(=O)c2cc(O)c(C/C=C(\C)CCC=C(C)C)c(O)c2)cc2c1O[C@]1(C)CC[C@@H](O)C(C)(C)[C@H]1C2
GI50 [1]: 4090 nM
TGI [1]: 19200 nM
GI50 [2]: 1620 nM
TGI [2]: 5390 nM
GI50 [3]: 1970 nM
TGI [3]: 11200 nM
GI50 [4]: 1340 nM
TGI [4]: 2900 nM
GI50 [5]: 549 nM
TGI [5]: 4880 nM
GI50 [6]: 2020 nM
TGI [6]: 6500 nM
GI50 [7]: 1360 nM
TGI [7]: 4460 nM
GI50 [8]: 963 nM
TGI [8]: 7900 nM
GI50 [9]: 7890 nM
TGI [9]: 44500 nM
GI50 [10]: 418 nM
TGI [10]: 4340 nM
GI50 [11]: 2210 nM
TGI [11]: 7220 nM
GI50 [12]: 1480 nM
TGI [12]: 4090 nM
GI50 [13]: 2820 nM
TGI [13]: 14300 nM
GI50 [14]: 3420 nM
TGI [14]: 13700 nM
GI50 [15]: 2900 nM
TGI [15]: 12100 nM
GI50 [16]: 604 nM
TGI [16]: 6440 nM
GI50 [17]: 444 nM
TGI [17]: 2750 nM
GI50 [18]: 2220 nM
TGI [18]: 6720 nM
GI50 [19]: 2620 nM
TGI [19]: 13100 nM
GI50 [20]: 209 nM
TGI [20]: 747 nM
GI50 [21]: 1980 nM
TGI [21]: 6660 nM
GI50 [22]: 1110 nM
TGI [22]: 5040 nM
GI50 [23]: 2580 nM
TGI [23]: 14700 nM
GI50 [24]: 627 nM
TGI [24]: 3890 nM
GI50 [25]: 463 nM
TGI [25]: 7210 nM
GI50 [26]: 2010 nM
TGI [26]: 8190 nM
GI50 [27]: 1630 nM
TGI [27]: 6950 nM
GI50 [28]: 348 nM
TGI [28]: 2380 nM
GI50 [29]: 841 nM
TGI [29]: 3550 nM
GI50 [30]: 2570 nM
TGI [30]: 12700 nM
GI50 [31]: 1060 nM
TGI [31]: 3430 nM
GI50 [32]: 2250 nM
TGI [32]: 11400 nM
GI50 [33]: 1080 nM
TGI [33]: 5730 nM
GI50 [34]: 1420 nM
TGI [34]: 3370 nM
GI50 [35]: 1350 nM
TGI [35]: 2890 nM
GI50 [36]: 2250 nM
TGI [36]: 12200 nM
GI50 [37]: 1530 nM
TGI [37]: 11800 nM
GI50 [38]: 348 nM
TGI [38]: 8750 nM
GI50 [39]: 957 nM
TGI [39]: 4880 nM
GI50 [40]: 2700 nM
TGI [40]: 9710 nM
GI50 [41]: 306 nM
TGI [41]: 1520 nM
GI50 [42]: 2090 nM
TGI [42]: 7530 nM
GI50 [43]: 1580 nM
TGI [43]: 8220 nM
GI50 [44]: 1630 nM
TGI [44]: 4440 nM
GI50 [45]: 2450 nM
TGI [45]: 11100 nM
GI50 [46]: 1430 nM
TGI [46]: 8250 nM
GI50 [47]: 1560 nM
TGI [47]: 5740 nM
GI50 [48]: 1620 nM
TGI [48]: 5790 nM
GI50 [49]: 849 nM
TGI [49]: 7160 nM
GI50 [50]: 724 nM
TGI [50]: 5330 nM
GI50 [51]: 2210 nM
TGI [51]: 10100 nM
GI50 [52]: 2070 nM
TGI [52]: 12300 nM
GI50 [53]: 1880 nM
TGI [53]: 5490 nM
GI50 [54]: 3340 nM
TGI [54]: 16200 nM
GI50 [55]: 1790 nM
TGI [55]: 12900 nM
GI50 [56]: 409 nM
TGI [56]: 5830 nM
GI50 [57]: 262 nM
TGI [57]: 1320 nM
GI50 [58]: 2380 nM
TGI [58]: 12800 nM
